Experiments:
Mu-type opioid receptor [1] = biological target: Mu-type opioid receptor (Mus musculus, UniProt P42866); test: Displacement of [3H]DAMGO from mu opioid receptor in mouse brain membranes without cerebellum; format: cell membranes, Membrane
[2] = biological target: Delta-type opioid receptor (Mus musculus, UniProt P32300); test: Displacement of [3H]DPDPE from delta opioid receptor in mouse brain membranes without cerebellum; format: cell membranes, Membrane
[3] = biological target: Kappa-type opioid receptor (Cavia porcellus, UniProt P41144); test: Displacement of [3H]U-69593 from kappa opioid receptor in guinea pig cerebellum
[4] = Selectivity ratio of Ki for mu opioid receptor in mouse brain membranes without cerebellum to Ki for kappa opioid receptor in guinea pig cerebellum; format: cell membranes
Mu-type opioid receptor [5] = biological target: T1, Mu-type opioid receptor (Homo sapiens, UniProt P35372); test: Agonist activity at human mu opioid receptor expressed in CHO cells by [35S]GTPgammaS binding assay; format: functional, cell-based
[6] = biological target: T2, Delta-type opioid receptor (Homo sapiens, UniProt P41143); test: Agonist activity at human delta opioid receptor expressed in CHO cells by [35S]GTPgammaS binding assay; format: functional, cell-based
[7] = biological target: T3, Kappa-type opioid receptor (Homo sapiens, UniProt P41145); test: Agonist activity at human kappa opioid receptor expressed in CHO cells by [35S]GTPgammaS binding assay; format: functional, cell-based
Mu-type opioid receptor [8] = biological target: T1, Mu-type opioid receptor; test: Agonist activity at human mu opioid receptor expressed in CHO cells by [35S]GTPgammaS binding assay relative to DAMGO; format: functional, cell-based
[9] = biological target: T2, Delta-type opioid receptor; test: Agonist activity at human delta opioid receptor expressed in CHO cells by [35S]GTPgammaS binding assay relative to SNC80; format: functional, cell-based
[10] = biological target: T3, Kappa-type opioid receptor; test: Agonist activity at human kappa opioid receptor expressed in CHO cells by [35S]GTPgammaS binding assay relative to U-69593; format: functional, cell-based

Delta-type opioid receptor (Mus musculus, UniProt P32300), sequence (P32300 whole entry): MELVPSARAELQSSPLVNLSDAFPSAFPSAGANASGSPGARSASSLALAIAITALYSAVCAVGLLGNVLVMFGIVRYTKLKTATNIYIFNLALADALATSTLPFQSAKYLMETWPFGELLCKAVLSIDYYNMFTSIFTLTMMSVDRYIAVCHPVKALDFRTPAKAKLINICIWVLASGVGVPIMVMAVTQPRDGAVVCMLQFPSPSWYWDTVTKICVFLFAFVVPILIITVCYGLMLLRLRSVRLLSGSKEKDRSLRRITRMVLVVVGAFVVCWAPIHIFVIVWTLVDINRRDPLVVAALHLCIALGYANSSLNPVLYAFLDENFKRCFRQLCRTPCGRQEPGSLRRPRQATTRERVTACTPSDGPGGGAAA
T3 sequence (P41145 whole entry): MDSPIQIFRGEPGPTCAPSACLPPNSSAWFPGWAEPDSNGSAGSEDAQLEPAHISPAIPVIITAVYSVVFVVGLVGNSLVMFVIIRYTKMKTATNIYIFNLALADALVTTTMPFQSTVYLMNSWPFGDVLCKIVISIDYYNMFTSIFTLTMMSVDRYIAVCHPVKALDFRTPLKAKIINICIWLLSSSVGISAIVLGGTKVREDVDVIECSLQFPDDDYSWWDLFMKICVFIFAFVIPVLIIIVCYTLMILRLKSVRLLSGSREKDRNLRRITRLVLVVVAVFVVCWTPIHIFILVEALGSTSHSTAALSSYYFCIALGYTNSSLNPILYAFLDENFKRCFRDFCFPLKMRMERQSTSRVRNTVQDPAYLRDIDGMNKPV
Kappa-type opioid receptor (Cavia porcellus, UniProt P41144), sequence (P41144 whole entry): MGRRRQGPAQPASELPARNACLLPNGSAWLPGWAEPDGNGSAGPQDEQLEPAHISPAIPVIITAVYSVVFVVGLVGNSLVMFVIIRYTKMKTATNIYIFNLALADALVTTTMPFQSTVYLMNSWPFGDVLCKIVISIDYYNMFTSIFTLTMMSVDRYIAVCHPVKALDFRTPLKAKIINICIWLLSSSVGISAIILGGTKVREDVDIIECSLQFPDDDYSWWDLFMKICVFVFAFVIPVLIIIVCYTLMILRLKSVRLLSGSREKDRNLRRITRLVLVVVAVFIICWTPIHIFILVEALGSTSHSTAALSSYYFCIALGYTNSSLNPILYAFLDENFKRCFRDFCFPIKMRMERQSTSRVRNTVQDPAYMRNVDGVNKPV
T2 sequence (P41143 whole entry): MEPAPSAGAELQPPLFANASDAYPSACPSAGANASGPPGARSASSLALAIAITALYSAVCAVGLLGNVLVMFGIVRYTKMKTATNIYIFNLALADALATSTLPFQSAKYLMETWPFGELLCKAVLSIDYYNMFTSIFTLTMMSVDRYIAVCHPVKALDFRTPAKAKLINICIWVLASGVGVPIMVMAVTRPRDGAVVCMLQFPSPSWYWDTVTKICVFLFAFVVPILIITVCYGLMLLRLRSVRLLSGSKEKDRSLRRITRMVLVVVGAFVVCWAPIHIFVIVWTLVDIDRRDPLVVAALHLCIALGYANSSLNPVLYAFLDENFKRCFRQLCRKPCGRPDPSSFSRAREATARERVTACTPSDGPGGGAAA
T1 sequence (P35372 whole entry): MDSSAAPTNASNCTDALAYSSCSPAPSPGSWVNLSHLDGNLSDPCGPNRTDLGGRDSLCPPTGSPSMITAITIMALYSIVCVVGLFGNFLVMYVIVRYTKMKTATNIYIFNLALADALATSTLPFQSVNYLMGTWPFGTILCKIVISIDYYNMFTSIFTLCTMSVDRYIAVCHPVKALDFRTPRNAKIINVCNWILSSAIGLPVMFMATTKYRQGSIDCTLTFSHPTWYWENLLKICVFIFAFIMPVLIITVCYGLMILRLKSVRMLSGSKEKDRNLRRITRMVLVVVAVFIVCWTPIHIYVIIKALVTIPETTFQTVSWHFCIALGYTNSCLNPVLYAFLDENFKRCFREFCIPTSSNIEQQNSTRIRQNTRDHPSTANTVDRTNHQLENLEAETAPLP
Mu-type opioid receptor (Mus musculus, UniProt P42866), sequence (P42866 whole entry): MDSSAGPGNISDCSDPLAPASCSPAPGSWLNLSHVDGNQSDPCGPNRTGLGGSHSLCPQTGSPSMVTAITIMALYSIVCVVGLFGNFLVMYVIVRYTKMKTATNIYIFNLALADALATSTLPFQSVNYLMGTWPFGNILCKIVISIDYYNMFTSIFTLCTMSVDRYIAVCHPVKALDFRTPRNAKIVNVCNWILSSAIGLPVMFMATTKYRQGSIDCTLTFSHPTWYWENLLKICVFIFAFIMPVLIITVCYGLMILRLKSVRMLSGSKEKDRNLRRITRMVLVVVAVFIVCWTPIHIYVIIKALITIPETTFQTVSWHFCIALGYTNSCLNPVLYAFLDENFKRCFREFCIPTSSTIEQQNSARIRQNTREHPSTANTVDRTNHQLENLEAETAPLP

O=C(C[C@@H]1N[C@@]23CC[C@]1(O)C1Oc4c(O)ccc5c4C12CCN(CC1CC1)C3C5)NCc1ccccc1 (some centres undefined)
Ki (Mu-type opioid receptor [1]): 0.13 nM
Ki [2]: 1.12 nM
Ki [3]: 0.11 nM
Ratio Ki [4]: 1.16

O=C(NCc1ccccc1)[C@@H]1N[C@@]23CC[C@]1(O)C1Oc4c(O)ccc5c4C12CCN(CC1CC1)C3C5 (some centres undefined)
Ki (Mu-type opioid receptor [1]): 0.15 nM
Ki [2]: 0.45 nM
Ki [3]: 0.18 nM
Ratio Ki [4]: 0.83

O=C(Nc1ccccc1)C1=N[C@@]23CC[C@]1(O)C1Oc4c(O)ccc5c4C12CCN(CC1CC1)C3C5 (some centres undefined)
Ki (Mu-type opioid receptor [1]): 0.36 nM
Ki [2]: 0.32 nM
Ki [3]: 0.38 nM
Ratio Ki [4]: 0.95

O=C(NCc1ccccc1)C1=N[C@@]23CC[C@]1(O)C1Oc4c(O)ccc5c4C12CCN(CC1CC1)C3C5 (some centres undefined)
Ki (Mu-type opioid receptor [1]): 0.14 nM
Ki [2]: 0.61 nM
Ki [3]: 0.043 nM
Ratio Ki [4]: 3.25
EC50 (Mu-type opioid receptor [5]): 0.4 nM
EC50 [6]: 1.7 nM
EC50 [7]: 0.033 nM
Emax (Mu-type opioid receptor [8]): 101%
Emax [9]: 93.2%
Emax [10]: 91.2%

O=C(NCCc1ccccc1)C1=N[C@@]23CC[C@]1(O)C1Oc4c(O)ccc5c4C12CCN(CC1CC1)C3C5 (some centres undefined)
Ki (Mu-type opioid receptor [1]): 0.4 nM
Ki [2]: 0.86 nM
Ki [3]: 0.12 nM
Ratio Ki [4]: 3.5
EC50 (Mu-type opioid receptor [5]): 1.09 nM
EC50 [6]: > 1000 nM
EC50 [7]: 0.18 nM
Emax (Mu-type opioid receptor [8]): 44.9%
Emax [10]: 76.3%

CN(C(=O)/C=C/c1ccoc1)[C@@H]1CC[C@@]2(O)[C@H]3Cc4ccc(O)c5c4[C@@]2(CCN3CC2CC2)[C@H]1O5 [NALFURAFINE]
EC50 (Mu-type opioid receptor [5]): 0.72 nM
Emax (Mu-type opioid receptor [8]): 70.4%
Emax [9]: 55.2%

O=C(C[C@H]1N[C@@]23CC[C@]1(O)C1Oc4c(O)ccc5c4C12CCN(CC1CC1)C3C5)NCc1ccccc1 (some centres undefined)
Ki (Mu-type opioid receptor [1]): 0.052 nM
Ki [2]: 0.15 nM
Ki [3]: 0.037 nM
Ratio Ki [4]: 1.42

O=C(NCc1ccccc1)[C@H]1N[C@@]23CC[C@]1(O)C1Oc4c(O)ccc5c4C12CCN(CC1CC1)C3C5 (some centres undefined)
Ki (Mu-type opioid receptor [1]): 0.24 nM
Ki [2]: 0.81 nM
Ki [3]: 0.23 nM
Ratio Ki [4]: 1.04

O=C1C[C@H]2N(CN1Cc1ccccc1)[C@@]13CC[C@]2(O)C2Oc4c(O)ccc5c4C21CCN(CC1CC1)C3C5 (some centres undefined)
Ki (Mu-type opioid receptor [1]): 0.43 nM
Ki [2]: 4.93 nM
Ki [3]: 1.54 nM
Ratio Ki [4]: 0.28

O=C1C[C@@H]2N(CN1Cc1ccccc1)[C@@]13CC[C@]2(O)C2Oc4c(O)ccc5c4C21CCN(CC1CC1)C3C5 (some centres undefined)
Ki (Mu-type opioid receptor [1]): 0.68 nM
Ki [2]: 3.83 nM
Ki [3]: 7.74 nM
Ratio Ki [4]: 0.09

Oc1ccc2c3c1OC1C34CCN(CC3CC3)C(C2)[C@]42CC[C@@]1(O)C=N2 (some centres undefined)
Ki (Mu-type opioid receptor [1]): 0.28 nM
Ki [2]: 6.12 nM
Ki [3]: 1.42 nM
Ratio Ki [4]: 0.2

— ChEMBL document CHEMBL3351376, “Design, synthesis, and structure-activity relationship of novel opioid κ receptor selective agonists: α-iminoamide derivatives with an azabicyclo[2.2.2]octene skeleton” (Bioorg Med Chem Lett, 2014)
